Laboratory results: BindingDB's records for doi:10.3109/14756360903179393 (University of Orleans, 2010)

How the values were obtained:
[1] = target: 5-hydroxytryptamine receptor 7 (Homo sapiens, UniProt P34969); experiment: Radioligand Binding Assay
Description: (§1) 1H nuclear magnetic resonance (NMR) and 13C NMR spectra were recorded on a Bruker Avance DPX250 spectrometer (250.131 MHz), in CDCl3 and using tetramethylsilane asinternal standard; multiplicities were determined by the DEPT 135 sequence, and chemical shifts are reported in parts per million (ppm). Coupling constants are reported in units of hertz (Hz) if applicable. Infrared (IR) spectra were recorded on a PerkinElmer Paragon 1000 PC Fourier transform infrared (FTIR) spectrometer using NaCl films or KBr pellets. Mass spectra (MS) were recorded on a PerkinElmerSCIEX AOI 300 spectrometer. Flash chromatography was performed on Merck […] (230-400 mesh) silica gel under nitrogen pressure. Thin layer chromatography (TLC)was carried out on Merck silica gel 60 F254 precoated plates. Visualization was made with ultraviolet light at 254 nm.

[2] = target: T1, 5-hydroxytryptamine receptor 1A (Rattus norvegicus, UniProt P19327); experiment: Radioligand Binding Assay
T1 sequence (P19327 whole entry): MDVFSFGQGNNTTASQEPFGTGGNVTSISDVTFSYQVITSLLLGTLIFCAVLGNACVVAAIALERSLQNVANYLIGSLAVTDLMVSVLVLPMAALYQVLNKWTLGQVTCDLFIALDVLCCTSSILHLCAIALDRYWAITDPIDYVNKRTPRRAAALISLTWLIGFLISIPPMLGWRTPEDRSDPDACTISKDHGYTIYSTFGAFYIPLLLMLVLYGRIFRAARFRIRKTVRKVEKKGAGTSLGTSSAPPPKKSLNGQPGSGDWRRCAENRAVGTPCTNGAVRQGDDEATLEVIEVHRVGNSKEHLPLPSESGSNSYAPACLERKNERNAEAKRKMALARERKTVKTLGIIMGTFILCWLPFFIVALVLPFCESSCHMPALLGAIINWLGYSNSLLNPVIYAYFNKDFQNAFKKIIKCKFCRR
Description: as §1

5-hydroxytryptamine receptor 7, sequence (P34969 whole entry): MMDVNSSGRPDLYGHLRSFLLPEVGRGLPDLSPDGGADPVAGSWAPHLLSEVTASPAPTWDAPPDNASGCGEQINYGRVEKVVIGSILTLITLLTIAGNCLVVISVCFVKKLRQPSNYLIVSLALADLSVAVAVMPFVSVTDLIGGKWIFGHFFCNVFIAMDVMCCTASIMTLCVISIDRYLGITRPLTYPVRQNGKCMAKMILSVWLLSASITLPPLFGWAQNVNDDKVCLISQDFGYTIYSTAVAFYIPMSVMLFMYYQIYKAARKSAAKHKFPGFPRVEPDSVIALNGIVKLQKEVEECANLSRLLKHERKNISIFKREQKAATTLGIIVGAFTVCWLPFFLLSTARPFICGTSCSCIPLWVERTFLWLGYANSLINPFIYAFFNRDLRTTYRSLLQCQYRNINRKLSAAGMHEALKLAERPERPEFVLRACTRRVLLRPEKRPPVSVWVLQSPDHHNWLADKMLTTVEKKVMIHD

Row | SMILES | Ki [1] [µM] | Ki [2] [µM]
1 | O=c1[nH]c2ccccc2n1CCN1CCCN2CCCCC2C1 (stereo unspecified) [1-[2-(Octahydropyrido[1,2-a][1,4]diazepin-2-yl)ethyl]-1,3-dihydrobenzo-imidazol-2-one (8)] | 23.6 | –
2 | c1cnc2c(c1)ccn2CCN1CCCN2CCCCC2C1 (stereo unspecified) [2-(2-Pyrrolo[2,3-b]pyridin-1-ylethyl)decahydropyrido[1,2-a][1,4]diazepine (5)] | 14 | 24.5
3 | Brc1ccc2ccn(CCN3CCCN4CCCCC4C3)c2n1 (stereo unspecified) [2-[2-(6-Bromopyrrolo[2,3-b]pyridin-1-yl)ethyl]decahydropyrido[1,2-a][1,4]diazepine (10)] | 0.492 | 14.9
4 | Clc1ccc2ccn(CCN3CCCN4CCCCC4C3)c2n1 (stereo unspecified) [2-[2-(6-Chloropyrrolo[2,3-b]pyridin-1-yl)ethyl]decahydropyrido[1,2-a][1,4]diazepine (11)] | 0.16 | 15
5 | Clc1nccc2ccn(CCN3CCCN4CCCCC4C3)c12 (stereo unspecified) [2-[2-(7-Chloropyrrolo[2,3-c]pyridin-1-yl)ethyl]decahydropyrido[1,2-a][1,4]diazepine (6)] | 5.31 | 16
6 | c1cc2ccn(CCN3CCCN4CCCCC4C3)c2cn1 (stereo unspecified) [2-[(2-Pyrrolo[2,3-c]pyridin-1-yl)ethyl]decahydropyrido[1,2-a][1,4]diazepine (7)] | > 10 | > 10
